What was measured:
AZD1775 = compound: C=CCn1c(=O)c2cnc(Nc3ccc(N4CCN(C)CC4)cc3)nc2n1-c1cccc(C(C)(C)O)n1 [AZD1775]; details: max 3 µM
How it was run: (§1)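 Cancer cell lines were seeded into 1536-well plates in 7.5 μl medium (DMEM/F12 or RPMI, 10% FBS), held 24 hours at 37°C and 5% CO2, and dosed for 72 hours with final DMSO typically 0.2%. Luminescence from CellTiter-Glo 2.0, scaled between blank-well and DMSO-well means, served as viability. The single-agent IC50 was obtained from dose-response fits with a non-linear mixed effects model, each fit being a two-parameter logistic curve.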

Lapatinib = compound: CS(=O)(=O)CCNCc1ccc(-c2ccc3ncnc(Nc4ccc(OCc5cccc(F)c5)c(Cl)c4)c3c2)o1 [Lapatinib]; details: max 10 µM
How it was run: as §1

Capivasertib = compound: C1CN(CCC1(C(=O)N[C@@H](CCO)C2=CC=C(C=C2)Cl)N)C3=NC=NC4=C3C=CN4 [Capivasertib]; details: max 10 µM
How it was run: as §1

Alisertib = compound: COc1cc(Nc2ncc3c(n2)-c2ccc(Cl)cc2C(c2c(F)cccc2OC)=NC3)ccc1C(=O)O [Alisertib]; details: max 10 µM
How it was run: as §1

AZD6738 = compound: C[C@@H]1COCCN1C2=NC(=NC(=C2)C3(CC3)[S@](=N)(=O)C)C4=C5C=CNC5=NC=C4 [AZD6738]; details: max 10 µM
How it was run: as §1

Palbociclib = compound: CC(=O)c1c(C)c2cnc(Nc3ccc(N4CCNCC4)cn3)nc2n(C2CCCC2)c1=O [Palbociclib]; details: max 10 µM
How it was run: as §1

SN-38 = compound: CCc1c2c(nc3ccc(O)cc13)-c1cc3c(c(=O)n1C2)COC(=O)[C@]3(O)CC [SN-38]; details: max 0.3 µM
How it was run: as §1

AZD2811 = compound: CCN(CCO)CCCOc1ccc2c(Nc3cc(CC(=O)Nc4cccc(F)c4)[nH]n3)ncnc2c1 [AZD2811]; details: max 1 µM
How it was run: as §1

Dasatinib = compound: CC1=C(C(=CC=C1)Cl)NC(=O)C2=CN=C(S2)NC3=CC(=NC(=N3)C)N4CCN(CC4)CCO [Dasatinib]; details: max 2 µM
How it was run: as §1

AZD5153 = compound: COc1nnc2ccc(N3CCC(c4ccc(OCCN5CCN(C)C(=O)[C@H]5C)cc4)CC3)nn12 [AZD5153]; details: max 1 µM
How it was run: as §1

Crizotinib = compound: C[C@@H](Oc1cc(-c2cnn(C3CCNCC3)c2)cnc1N)c1c(Cl)ccc(F)c1Cl [Crizotinib]; details: max 10 µM
How it was run: as §1

AZD0156 = compound: CN(C)CCCOc1ccc(-c2ccc3ncc4c(c3c2)n(C2CCOCC2)c(=O)n4C)cn1 [AZD0156]; details: max 3 µM
How it was run: as §1

SG3199 = compound: CC1=CN2[C@@H](C1)C=NC3=CC(=C(C=C3C2=O)OC)OCCCCCOC4=C(C=C5C(=C4)N=C[C@@H]6CC(=CN6C5=O)C)OC [SG3199]; details: max 0.001 µM
How it was run: as §1

Gefitinib = compound: COc1cc2ncnc(Nc3ccc(F)c(Cl)c3)c2cc1OCCCN1CCOCC1 [Gefitinib]; details: max 10 µM
How it was run: as §1

Taselisib = compound: Cc1nc(-c2cn3c(n2)-c2ccc(-c4cnn(C(C)(C)C(N)=O)c4)cc2OCC3)n(C(C)C)n1 [Taselisib]; details: max 10 µM
How it was run: as §1

Selumetinib = compound: Cn1cnc2c(F)c(Nc3ccc(Br)cc3Cl)c(C(=O)NOCCO)cc21 [Selumetinib]; details: max 10 µM
How it was run: as §1

AZD8186 = compound: C[C@@H](Nc1cc(F)cc(F)c1)c1cc(C(=O)N(C)C)cc2c(=O)cc(N3CCOCC3)oc12 [AZD8186]; details: max 3 µM
How it was run: as §1

Prexasertib = compound: COc1cccc(OCCCN)c1-c1cc(Nc2cnc(C#N)cn2)n[nH]1 [Prexasertib]; details: max 1 µM
How it was run: as §1

Savolitinib = compound: C[C@@H](c1ccc2nccn2c1)n1nnc2ncc(-c3cnn(C)c3)nc21 [Savolitinib]; details: max 1 µM
How it was run: as §1

AZD1390 = compound: CC(C)n1c(=O)n(C)c2cnc3cc(F)c(-c4ccc(OCCCN5CCCCC5)nc4)cc3c21 [AZD1390]; details: max 0.3 µM
How it was run: as §1

AZD7648 = compound: Cc1cc2ncnn2cc1Nc1ncc2c(n1)n(C1CCOCC1)c(=O)n2C [AZD7648]; details: max 10 µM
How it was run: as §1

AZD5991 = compound: Cc1c2c(nn1C)CSCc1cc(n(C)n1)CSc1cc(c3ccccc3c1)OCCCc1c(C(=O)O)n(C)c3c-2c(Cl)ccc13 [AZD5991]; details: max 1 µM
How it was run: as §1

Olaparib = compound: O=C(c1cc(Cc2n[nH]c(=O)c3ccccc23)ccc1F)N1CCN(C(=O)C2CC2)CC1 [Olaparib]; details: max 10 µM
How it was run: as §1

Venetoclax = compound: CC1(C)CCC(CN2CCN(c3ccc(C(=O)NS(=O)(=O)c4ccc(NCC5CCOCC5)c([N+](=O)[O-])c4)c(Oc4cnc5[nH]ccc5c4)c3)CC2)=C(c2ccc(Cl)cc2)C1 [Venetoclax]; details: max 1 µM
How it was run: as §1

Doxorubicin = compound: COc1cccc2c1C(=O)c1c(O)c3c(c(O)c1C2=O)C[C@@](O)(C(=O)CO)C[C@@H]3O[C@H]1C[C@H](N)[C@H](O)[C@H](C)O1 [Doxorubicin]; details: max 1 µM
How it was run: as §1

Trametinib = compound: CC(=O)Nc1cccc(-n2c(=O)n(C3CC3)c(=O)c3c(Nc4ccc(I)cc4F)n(C)c(=O)c(C)c32)c1 [Trametinib]; details: max 1 µM
How it was run: as §1

AZD4320 = compound: CN(CC[C@H](CSC1=CC=CC=C1)NC2=C(C=C(C=C2)S(=O)(=O)NC(=O)C3=CC=C(C=C3)N4CCC(CC4)[C@H](C5=CC=CC=C5C6=CC=C(C=C6)Cl)O)S(=O)(=O)C(F)(F)F)CCO [AZD4320]; details: max 1 µM
How it was run: as §1

Cell Line | IC50, cell viability 72 h (AZD1775) [nM] | IC50, cell viability 72 h (Lapatinib) [nM] | IC50, cell viability 72 h (Capivasertib) [nM] | IC50, cell viability 72 h (Alisertib) [nM] | IC50, cell viability 72 h (AZD6738) [nM] | IC50, cell viability 72 h (Palbociclib) [nM] | IC50, cell viability 72 h (SN-38) [nM] | IC50, cell viability 72 h (AZD2811) [nM] | IC50, cell viability 72 h (Dasatinib) [nM] | IC50, cell viability 72 h (AZD5153) [nM] | IC50, cell viability 72 h (Crizotinib) [nM] | IC50, cell viability 72 h (AZD0156) [nM] | IC50, cell viability 72 h (SG3199) [nM] | IC50, cell viability 72 h (Gefitinib) [nM] | IC50, cell viability 72 h (Taselisib) [nM] | IC50, cell viability 72 h (Selumetinib) [nM] | IC50, cell viability 72 h (AZD8186) [nM] | IC50, cell viability 72 h (Prexasertib) [nM] | IC50, cell viability 72 h (Savolitinib) [nM] | IC50, cell viability 72 h (AZD1390) [nM] | IC50, cell viability 72 h (AZD7648) [nM] | IC50, cell viability 72 h (AZD5991) [nM] | IC50, cell viability 72 h (Olaparib) [nM] | IC50, cell viability 72 h (Venetoclax) [nM] | IC50, cell viability 72 h (Doxorubicin) [nM] | IC50, cell viability 72 h (Trametinib) [nM] | IC50, cell viability 72 h (AZD4320) [nM]
HuP-T4 (Pancreatic Carcinoma) | 1000 | > 10000 | > 10000 | > 10000 | > 10000 | > 10000 | 8.7 | > 1000 | > 2000 | > 1000 | > 10000 | > 3000 | > 1 | > 10000 | > 10000 | > 10000 | > 3000 | 175 | > 1000 | > 300 | > 10000 | > 1000 | > 10000 | > 1000 | 946 | > 1000 | > 1000
KP-1N (Pancreatic Carcinoma) | > 3000 | > 10000 | > 10000 | > 10000 | > 10000 | > 10000 | > 300 | > 1000 | > 2000 | > 1000 | > 10000 | > 3000 | > 1 | > 10000 | > 10000 | > 10000 | > 3000 | > 1000 | > 1000 | > 300 | > 10000 | > 1000 | > 10000 | > 1000 | > 1000 | > 1000 | > 1000
KYSE-520 (Esophageal Squamous Cell Carcinoma) | > 3000 | 3080 | > 10000 | > 10000 | > 10000 | > 10000 | > 300 | > 1000 | 233 | 278 | > 10000 | > 3000 | > 1 | 3920 | 1250 | > 10000 | > 3000 | 116 | > 1000 | > 300 | > 10000 | > 1000 | > 10000 | > 1000 | > 1000 | 181 | > 1000
LNCaP-Clone-FGC (Prostate Carcinoma) | 811 | > 10000 | 134 | > 10000 | 3580 | > 10000 | 30.8 | > 1000 | > 2000 | 94.4 | 8700 | > 3000 | > 1 | > 10000 | 957 | > 10000 | 129 | 35.6 | > 1000 | > 300 | > 10000 | > 1000 | > 10000 | > 1000 | 170 | > 1000 | > 1000
LU-135 (Small Cell Lung Carcinoma) | 1840 | 9730 | > 10000 | 317 | 6100 | > 10000 | 27.9 | 25.7 | > 2000 | 66.1 | 2590 | > 3000 | > 1 | > 10000 | > 10000 | > 10000 | > 3000 | 343 | > 1000 | > 300 | > 10000 | > 1000 | > 10000 | > 1000 | 214 | > 1000 | 17.6
MDA-MB-361 (Breast Carcinoma) | 515 | > 10000 | 9810 | > 10000 | 2180 | > 10000 | 275 | > 1000 | > 2000 | > 1000 | > 10000 | > 3000 | > 1 | > 10000 | 103 | > 10000 | > 3000 | 6.52 | > 1000 | > 300 | > 10000 | 579 | > 10000 | > 1000 | > 1000 | > 1000 | > 1000
NOS-1 (Osteosarcoma) | 757 | > 10000 | > 10000 | > 10000 | 7740 | > 10000 | > 300 | > 1000 | 192 | 119 | 7980 | > 3000 | > 1 | > 10000 | 1440 | > 10000 | > 3000 | > 1000 | > 1000 | > 300 | > 10000 | 361 | > 10000 | > 1000 | > 1000 | > 1000 | > 1000
SK-ES-1 (Ewing's Sarcoma) | 618 | > 10000 | > 10000 | 94.1 | 2890 | 2390 | 1.6 | 17.9 | > 2000 | 296 | 1410 | > 3000 | > 1 | > 10000 | 676 | > 10000 | > 3000 | 28 | > 1000 | > 300 | > 10000 | 236 | 2610 | > 1000 | 53.3 | > 1000 | 150
TCCSUP (Bladder Carcinoma) | 2310 | > 10000 | > 10000 | > 10000 | 8380 | > 10000 | 201 | > 1000 | > 2000 | > 1000 | > 10000 | > 3000 | > 1 | > 10000 | > 10000 | > 10000 | > 3000 | 165 | > 1000 | > 300 | > 10000 | > 1000 | > 10000 | > 1000 | > 1000 | > 1000 | > 1000

From the supplement of paper PMC11061612
